{"source": "PubChem BioAssay (NCI)", "test_in_all_cases": "DTP human tumour cell line panel, 48 h", "key": {"HL-60(TB) leukemia": {"system": "HL-60(TB) leukemia"}, "CCRF-CEM leukemia": {"system": "CCRF-CEM leukemia"}, "NCI-H226 lung": {"system": "NCI-H226 lung"}, "IGROV1 ovarian": {"system": "IGROV1 ovarian"}, "TK-10 renal": {"system": "TK-10 renal"}, "ACHN renal": {"system": "ACHN renal"}, "CAKI-1 renal": {"system": "CAKI-1 renal"}, "HT29 colon": {"system": "HT29 colon"}, "SW-620 colon": {"system": "SW-620 colon"}, "NCI/ADR-RES ovarian": {"system": "NCI/ADR-RES ovarian"}, "OVCAR-3 ovarian": {"system": "OVCAR-3 ovarian"}, "UACC-257 melanoma": {"system": "UACC-257 melanoma"}, "OVCAR-4 ovarian": {"system": "OVCAR-4 ovarian"}, "HS 578T breast": {"system": "HS 578T breast"}, "UACC-62 melanoma": {"system": "UACC-62 melanoma"}, "SNB-75 CNS": {"system": "SNB-75 CNS"}, "UO-31 renal": {"system": "UO-31 renal"}, "A549 NSCLC": {"system": "A549 NSCLC"}, "K-562 leukemia": {"system": "K-562 leukemia"}, "A498 renal": {"system": "A498 renal"}, "RPMI-8226 leukemia": {"system": "RPMI-8226 leukemia"}, "MALME-3M melanoma": {"system": "MALME-3M melanoma"}, "NCI-H522 lung": {"system": "NCI-H522 lung"}, "SF-295 CNS": {"system": "SF-295 CNS"}, "U251 CNS": {"system": "U251 CNS"}, "DU-145 prostate": {"system": "DU-145 prostate"}, "SK-MEL-28 melanoma": {"system": "SK-MEL-28 melanoma"}, "MDA-MB-435": {"system": "MDA-MB-435"}, "OVCAR-5 ovarian": {"system": "OVCAR-5 ovarian"}, "MOLT-4 leukemia": {"system": "MOLT-4 leukemia"}, "SK-OV-3 ovarian": {"system": "SK-OV-3 ovarian"}, "T-47D breast": {"system": "T-47D breast"}, "HOP-62 NSCLC": {"system": "HOP-62 NSCLC"}, "NCI-H460 lung": {"system": "NCI-H460 lung"}, "COLO 205 colon": {"system": "COLO 205 colon"}, "MDA-MB-231 breast": {"system": "MDA-MB-231 breast"}, "OVCAR-8 ovarian": {"system": "OVCAR-8 ovarian"}, "HCT-15 colon": {"system": "HCT-15 colon"}, "PC-3 prostate": {"system": "PC-3 prostate"}, "EKVX NSCLC": {"system": "EKVX NSCLC"}, "SN12C renal": {"system": "SN12C renal"}, "NCI-H23 lung": {"system": "NCI-H23 lung"}}, "note": "Several values for one entry are separate records, joined by “and”; a condition that tells them apart may be missing. Identical values can stand only once.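 The compound was tested at five concentrations on cells cultured in 96-well plates, with a 48-hour exposure period. GI50 is the concentration that inhibits growth by half. TGI: concentration producing complete growth inhibition.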"}
{"compound": "Oc1c(Cl)c(Cl)c(Cl)c(Cl)c1Cl", "note": "(tested in a mixture with another compound)", "values": [{"measurement": "TGI", "setting": "HL-60(TB) leukemia", "value": "39 µM and 10 µM"}, {"measurement": "TGI", "setting": "CCRF-CEM leukemia", "value": 62.3, "unit": "µM"}, {"measurement": "TGI", "setting": "NCI-H226 lung", "value": 41.7, "unit": "µM"}]}
{"compound": "CCCCCCCCCCCCCC[n+]1ccc(C(N)=O)cc1", "values": [{"measurement": "GI50", "setting": "IGROV1 ovarian", "value": 1.05, "unit": "µM"}, {"measurement": "TGI", "setting": "IGROV1 ovarian", "value": 2.91, "unit": "µM"}, {"measurement": "GI50", "setting": "TK-10 renal", "value": 1.18, "unit": "µM"}, {"measurement": "TGI", "setting": "TK-10 renal", "value": 2.79, "unit": "µM"}, {"measurement": "GI50", "setting": "ACHN renal", "value": 3.47, "unit": "µM"}, {"measurement": "TGI", "setting": "ACHN renal", "value": 15.9, "unit": "µM"}, {"measurement": "GI50", "setting": "CAKI-1 renal", "value": 3.04, "unit": "µM"}, {"measurement": "TGI", "setting": "CAKI-1 renal", "value": 15, "unit": "µM"}, {"measurement": "GI50", "setting": "HT29 colon", "value": 1.11, "unit": "µM"}, {"measurement": "TGI", "setting": "HT29 colon", "value": 4.13, "unit": "µM"}, {"measurement": "GI50", "setting": "SW-620 colon", "value": 2.31, "unit": "µM"}, {"measurement": "TGI", "setting": "SW-620 colon", "value": 11.2, "unit": "µM"}, {"measurement": "GI50", "setting": "NCI/ADR-RES ovarian", "value": 19, "unit": "µM"}, {"measurement": "TGI", "setting": "NCI/ADR-RES ovarian", "value": 50.2, "unit": "µM"}, {"measurement": "GI50", "setting": "OVCAR-3 ovarian", "value": 1.54, "unit": "µM"}, {"measurement": "TGI", "setting": "OVCAR-3 ovarian", "value": 5.39, "unit": "µM"}, {"measurement": "GI50", "setting": "UACC-257 melanoma", "value": 2.24, "unit": "µM"}, {"measurement": "TGI", "setting": "UACC-257 melanoma", "value": 6.08, "unit": "µM"}, {"measurement": "GI50", "setting": "OVCAR-4 ovarian", "value": 3.26, "unit": "µM"}, {"measurement": "TGI", "setting": "OVCAR-4 ovarian", "value": 18.2, "unit": "µM"}, {"measurement": "GI50", "setting": "HS 578T breast", "value": 2.01, "unit": "µM"}, {"measurement": "TGI", "setting": "HS 578T breast", "value": 7.05, "unit": "µM"}, {"measurement": "GI50", "setting": "UACC-62 melanoma", "value": 1.9, "unit": "µM"}, {"measurement": "TGI", "setting": "UACC-62 melanoma", "value": 4.65, "unit": "µM"}, {"measurement": "GI50", "setting": "SNB-75 CNS", "value": 1.7, "unit": "µM"}, {"measurement": "TGI", "setting": "SNB-75 CNS", "value": 4.17, "unit": "µM"}, {"measurement": "GI50", "setting": "UO-31 renal", "value": 7.65, "unit": "µM"}, {"measurement": "TGI", "setting": "UO-31 renal", "value": 24.3, "unit": "µM"}, {"measurement": "GI50", "setting": "A549 NSCLC", "value": 2.4, "unit": "µM"}, {"measurement": "TGI", "setting": "A549 NSCLC", "value": 6.65, "unit": "µM"}, {"measurement": "GI50", "setting": "CCRF-CEM leukemia", "value": 2.52, "unit": "µM"}, {"measurement": "TGI", "setting": "CCRF-CEM leukemia", "value": "> 100", "unit": "µM"}, {"measurement": "GI50", "setting": "K-562 leukemia", "value": 2.31, "unit": "µM"}, {"measurement": "TGI", "setting": "K-562 leukemia", "value": "> 100", "unit": "µM"}, {"measurement": "GI50", "setting": "A498 renal", "value": 3.07, "unit": "µM"}, {"measurement": "TGI", "setting": "A498 renal", "value": 21.5, "unit": "µM"}, {"measurement": "GI50", "setting": "RPMI-8226 leukemia", "value": 0.731, "unit": "µM"}, {"measurement": "TGI", "setting": "RPMI-8226 leukemia", "value": 3.03, "unit": "µM"}, {"measurement": "GI50", "setting": "MALME-3M melanoma", "value": 2.27, "unit": "µM"}, {"measurement": "TGI", "setting": "MALME-3M melanoma", "value": 7.72, "unit": "µM"}, {"measurement": "GI50", "setting": "NCI-H522 lung", "value": 1.61, "unit": "µM"}, {"measurement": "TGI", "setting": "NCI-H522 lung", "value": 4.68, "unit": "µM"}, {"measurement": "GI50", "setting": "SF-295 CNS", "value": 1.76, "unit": "µM"}, {"measurement": "TGI", "setting": "SF-295 CNS", "value": 5.06, "unit": "µM"}, {"measurement": "GI50", "setting": "U251 CNS", "value": 0.538, "unit": "µM"}, {"measurement": "TGI", "setting": "U251 CNS", "value": 1.87, "unit": "µM"}, {"measurement": "GI50", "setting": "DU-145 prostate", "value": 2.66, "unit": "µM"}, {"measurement": "TGI", "setting": "DU-145 prostate", "value": 10.7, "unit": "µM"}, {"measurement": "GI50", "setting": "SK-MEL-28 melanoma", "value": 2.83, "unit": "µM"}, {"measurement": "TGI", "setting": "SK-MEL-28 melanoma", "value": 7.49, "unit": "µM"}, {"measurement": "GI50", "setting": "MDA-MB-435", "value": 1.87, "unit": "µM"}, {"measurement": "TGI", "setting": "MDA-MB-435", "value": 4.64, "unit": "µM"}, {"measurement": "GI50", "setting": "OVCAR-5 ovarian", "value": 1.2, "unit": "µM"}, {"measurement": "TGI", "setting": "OVCAR-5 ovarian", "value": 4.12, "unit": "µM"}, {"measurement": "GI50", "setting": "MOLT-4 leukemia", "value": 2.54, "unit": "µM"}, {"measurement": "TGI", "setting": "MOLT-4 leukemia", "value": "> 100", "unit": "µM"}, {"measurement": "GI50", "setting": "SK-OV-3 ovarian", "value": 2.33, "unit": "µM"}, {"measurement": "TGI", "setting": "SK-OV-3 ovarian", "value": 10.9, "unit": "µM"}, {"measurement": "GI50", "setting": "T-47D breast", "value": 3.13, "unit": "µM"}, {"measurement": "TGI", "setting": "T-47D breast", "value": 14, "unit": "µM"}, {"measurement": "GI50", "setting": "HOP-62 NSCLC", "value": 1.51, "unit": "µM"}, {"measurement": "TGI", "setting": "HOP-62 NSCLC", "value": 3.45, "unit": "µM"}, {"measurement": "GI50", "setting": "NCI-H460 lung", "value": 2.58, "unit": "µM"}, {"measurement": "TGI", "setting": "NCI-H460 lung", "value": 8.18, "unit": "µM"}, {"measurement": "GI50", "setting": "COLO 205 colon", "value": 1.27, "unit": "µM"}, {"measurement": "TGI", "setting": "COLO 205 colon", "value": 2.69, "unit": "µM"}, {"measurement": "GI50", "setting": "MDA-MB-231 breast", "value": 1.85, "unit": "µM"}, {"measurement": "TGI", "setting": "MDA-MB-231 breast", "value": 4.6, "unit": "µM"}, {"measurement": "GI50", "setting": "NCI-H226 lung", "value": 1.52, "unit": "µM"}, {"measurement": "TGI", "setting": "NCI-H226 lung", "value": 4.01, "unit": "µM"}, {"measurement": "GI50", "setting": "OVCAR-8 ovarian", "value": 1.68, "unit": "µM"}, {"measurement": "TGI", "setting": "OVCAR-8 ovarian", "value": 4.48, "unit": "µM"}, {"measurement": "GI50", "setting": "HCT-15 colon", "value": 7.19, "unit": "µM"}, {"measurement": "TGI", "setting": "HCT-15 colon", "value": 49.6, "unit": "µM"}, {"measurement": "GI50", "setting": "PC-3 prostate", "value": 0.703, "unit": "µM"}, {"measurement": "TGI", "setting": "PC-3 prostate", "value": 2.88, "unit": "µM"}, {"measurement": "GI50", "setting": "EKVX NSCLC", "value": 1.98, "unit": "µM"}, {"measurement": "TGI", "setting": "EKVX NSCLC", "value": 6.71, "unit": "µM"}, {"measurement": "GI50", "setting": "SN12C renal", "value": 3.2, "unit": "µM"}, {"measurement": "TGI", "setting": "SN12C renal", "value": 10.6, "unit": "µM"}, {"measurement": "GI50", "setting": "NCI-H23 lung", "value": 2.42, "unit": "µM"}, {"measurement": "TGI", "setting": "NCI-H23 lung", "value": 15.2, "unit": "µM"}]}
